Source: patent publication US6455510B1, “Chemical Compounds” (SmithKline Beecham Corporation, priority 1997, dated 2002)

Legend:
[1] = target: T1, human adenosine A1 receptor (Homo sapiens, UniProt P30542); experiment: Reporter gene assay (CRE/SPAP) in CHO cells, agonist activity, adenosine A1; type: cell-based; conditions: CHO cells stably transfected with human adenosine A1 receptor; inhibition of forskolin-stimulated SPAP production; potency relative to NECA=1
T1 construct: expressed in transfected cells; host or cells: Chinese hamster ovary (CHO) cells containing CRE/SPAP/HYG reporter elements
T1 sequence (P30542 1-326): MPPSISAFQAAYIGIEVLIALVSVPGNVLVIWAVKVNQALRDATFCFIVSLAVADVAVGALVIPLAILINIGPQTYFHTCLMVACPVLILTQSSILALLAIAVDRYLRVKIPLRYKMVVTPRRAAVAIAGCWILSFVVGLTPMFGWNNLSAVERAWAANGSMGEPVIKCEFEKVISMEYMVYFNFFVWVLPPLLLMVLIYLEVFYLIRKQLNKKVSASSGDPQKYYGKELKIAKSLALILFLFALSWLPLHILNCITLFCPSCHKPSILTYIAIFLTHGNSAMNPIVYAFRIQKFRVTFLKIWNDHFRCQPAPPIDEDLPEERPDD
Experimental: (§1) Reporter Gene Experiments
Agonist activity was measured in Chinese hamster ovary (CHO) cells containing the CRE/SPAP/HYG (CRE=cyclic AMP response element; HYG=hygromycin resistance; SPAP=secreted placental alkaline phosphatase) reporter gene elements, which upon stimulation of cAMP levels produced SPAP. A cell line was used, which was stably transfected with either the human adenosine Al receptor or the human adenosine A3 receptor in addition to the above elements. Cells were plated out in 96-well plates in culture medium and incubated at 37° C. for 1 hour. […] 15 Min later, cAMP levels were stimulated by addition of a maximal concentration of forskolin. All cells were then incubated for a further 5 hours at 37° C., and cooled to room temperature, after which a substrate for the phosphatase (para-nitrophenol phosphate, pNPP), which is converted by SPAP to a coloured reagent) was then added and the 96-well plates were read in a plate reader. From these readings, the concentration-dependence of the inhibition by the agonist for forskolin-stimulated SPAP production can be calculated.
(§2) (ECR=equipotent concentration ratio relative to NECA=1)

[2] = target: T2, human adenosine A3 receptor (Homo sapiens, UniProt P0DMS8); experiment: Reporter gene assay (CRE/SPAP) in CHO cells, agonist activity, adenosine A3; type: cell-based; conditions: CHO cells stably transfected with human adenosine A3 receptor; inhibition of forskolin-stimulated SPAP production; potency relative to NECA=1
T2 construct: expressed in transfected cells; host or cells: Chinese hamster ovary (CHO) cells containing CRE/SPAP/HYG reporter elements
T2 sequence (P0DMS8 1-318): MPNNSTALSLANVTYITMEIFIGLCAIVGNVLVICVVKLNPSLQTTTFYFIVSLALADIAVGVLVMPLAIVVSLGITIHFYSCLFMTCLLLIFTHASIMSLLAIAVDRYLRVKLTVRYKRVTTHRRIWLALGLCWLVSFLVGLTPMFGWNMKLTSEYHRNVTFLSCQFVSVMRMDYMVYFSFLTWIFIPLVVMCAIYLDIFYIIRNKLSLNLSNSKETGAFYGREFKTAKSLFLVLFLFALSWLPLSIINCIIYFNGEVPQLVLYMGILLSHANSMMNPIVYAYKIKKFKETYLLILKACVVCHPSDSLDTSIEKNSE
Experimental: as §1
Agonist activity was measured in Chinese hamster ovary (CHO) cells containing the CRE/SPAP/HYG (CRE=cyclic AMP response element; HYG=hygromycin resistance; SPAP=secreted placental alkaline phosphatase) reporter gene elements, which upon stimulation of cAMP levels produced SPAP. A cell line was used, which was stably transfected with either the human adenosine Al receptor or the human adenosine A3 receptor in addition to the above elements. Cells were plated out in 96-well plates in culture medium and incubated at 37° C. for 1 hour. For measurement of potency, agonists were added to the appropriate wells at a concentration range of approximately 10^−10-10^−5M. 15 Min later, cAMP levels were stimulated by addition of a maximal concentration of forskolin. All cells were then incubated for a further 5 hours at 37° C., and cooled to room temperature, after which a substrate for the phosphatase (para-nitrophenol phosphate, pNPP), which is converted by SPAP to a coloured reagent) was then added and the 96-well plates were read in a plate reader. From these readings, the concentration-dependence of the inhibition by the agonist for forskolin-stimulated SPAP production can be calculated. One of the agonists tested on each 96-well plate was the standard non-selective agonist, N-ethylcarboxamidoadenosine (NECA), and the potency of all test agonists is expressed relative to that of the NECA standard.
as §2

| Structure (SMILES) | A1 Receptor, Reporter Gene Assay ECR (equipotent concentration ratio relative to NECA=1) [1] | A3 Receptor, Reporter Gene Assay ECR (equipotent concentration ratio relative to NECA=1) [2] |
| --- | --- | --- |
| CS(=O)(=O)N1CCC(Nc2nc(Cl)nc3c2ncn3[C@@H]2O[C@H](CF)[C@@H](O)[C@H]2O)CC1 [Example 23, 2-Chloro-5′-deoxy-5′-fluoro-N-(1-methanesulfonyl-piperidin-4-yl)-adenosine] | 11.20 | 48.90 |
| CCCCOC(=O)N1CCC(Nc2nc(Cl)nc3c2ncn3[C@@H]2O[C@H](CF)[C@@H](O)[C@H]2O)CC1 [Example 26, 4-[2-Chloro-9-(5S-fluoromethyl-3R,4S-dihydroxy-tetrahydro-furan-2R-yl)-9H-purin-6-ylamino]-piperidine-1-carboxylic acid butyl ester] | 4.50 | >233.00 |
| CCNC(=O)N1CCC(Nc2nc(Cl)nc3c2ncn3[C@@H]2O[C@H](CF)[C@@H](O)[C@H]2O)CC1 [Example 29, 4-[2-Chloro-9-(5S-fluoromethyl-3R,4S-dihydroxy-tetrahydro-furan-2R-yl)-9H-purin-6-ylamino]-piperidine-1-carboxylic acid ethylamide] | 51.60 | >236.00 |

Now from value to molecule:

| A1 Receptor, Reporter Gene Assay ECR (equipotent concentration ratio relative to NECA=1) [1] | A3 Receptor, Reporter Gene Assay ECR (equipotent concentration ratio relative to NECA=1) [2] | Structure (SMILES) |
| --- | --- | --- |
| 7.83 | >233.00 | CC(C)(C)CNc1nc(Cl)nc2c1ncn2[C@@H]1O[C@H](CF)[C@@H](O)[C@H]1O [Example 24, 2-Chloro-5′-deoxy-N-(2,2-dimethyl-propyl)-5′-fluoro-adenosine] |
| 2.05 | >170.00 | O[C@@H]1[C@H](O)[C@@H](CF)O[C@H]1n1cnc2c(Nc3ccc(Cl)cc3F)ncnc21 [Example 28, N-(4-Chloro-2-fluoro-phenyl)-5′-deoxy-5′-fluoro-adenosine] |
